Measurements from patent publication US20110038997A1, “Method of processing poultry and other meat to reduce or eliminate Salmonella” (Birko Corporation, priority 2007, published 2011).

What was measured:
Assay type in all cases: cell-based
[1] = test system: Salmonella culture (M61); assay: Log kill of Salmonella M61 in suspension, acid treatment, quench and plating on Salmonella Shigella agar
Description: In each instance a target sample was employed using approximately 50 micro liters of a Salmonella culture (given the name “M61”) derived from a sample of chicken meal contaminated with chicken feces and approximately 1.5×10^7 cells per ml. […] The results obtained were consistent with the genus Salmonella.
(§1) The tests were performed at room temperature, e.g., 71 deg. […] The reaction was permitted to proceed for the time indicated for each test in Table 1, and was terminated by the introduction of a quench buffer comprising 4.2 M potassium phosphate buffer, pH 7.2. […] The plating medium was Salmonella Shigella agar, […]. The reduction in the bacteria count is expressed as the “log kill.” “Log kill” is generally defined as log10[initial cfu/ml]−log10[remaining cfu/ml].
An experiment was performed using the same protocol as in Example 1, except that the duration of treatment with the antimicrobial agent was maintained constant at 20 seconds. […] All tests were conducted at an ambient temperature of approximately 71 deg. F.
An experiment was performed using the same protocol as in Example 3. In this case, the target organism was a sample of “M61” Salmonella.

[2] = test system: Salmonella enterica ATCC 14028; assay: Log kill of Salmonella enterica ATCC 14028 in suspension, plating on tryptic soy agar; details: for Log Kill Salmonella (ATCC 14028) / Relative Kill Salmonella (ATCC 14028): 15 seconds
Description: as §1
Similar tests were performed using Salmonella enterica ATCC 14028 instead of the M61 Salmonella, and tryptic soy agar was employed instead of Salmonella Shigella agar.
The same tests were repeated using Salmonella enterica ATCC 14028 instead of the M61 Salmonella, and tryptic soy agar was employed instead of Salmonella Shigella agar.
The same tests were repeated using Salmonella enterica ATCC 14028 instead of Salmonella M61, and tryptic soy agar was employed instead of Salmonella shigella.
Another series of tests were performed as those resulting in Table VB, except that the acids were present in a total amount of 2%.

[3] = test system: Escherichia coli (SAC-2); assay: Log kill of E. coli SAC-2 by lactic/citric acid mixtures; details: 2.5% acid, total; 15 seconds, 76 deg F
Description: (§2) The tests were performed at room temperature, e.g., 71 deg. F. A reaction mixture was prepared including the Salmonella, water and the aqueous solution of lactic acid. The reaction was permitted to proceed for the time indicated for each test in Table 1, and was terminated by the introduction of a quench buffer comprising 4.2 M potassium phosphate buffer, pH 7.2. The results of the test were evaluated using a series of 10-fold dilutions as needed to determine, on a standard plating agar, the titer of bacteria that survived the antimicrobial treatment. The plating medium was Salmonella Shigella agar, a medium that would allow the growth of most bacteria. The reduction in the bacteria count is expressed as the “log kill.” “Log kill” is generally defined as log10[initial cfu/ml]−log10[remaining cfu/ml].
An experiment was performed using the same protocol as in Example 1. In this case, the target bacteria was a sample of E. coli (given the name “SAC-2”) taken from a local sewer facility. The isolate was characterized using standard microbiological methods including selective and indicative culture media and other metabolic tests. The results obtained were consistent with E. coli.
(§3) The duration of treatment was 15 seconds at an ambient temperature of 76 deg F.

[4] = test system: Escherichia coli (ATCC 12435); assay: Log kill of E. coli ATCC 12435 by lactic/citric acid mixtures; details: 2.5% acid, total; 15 seconds, 76 deg F
Description: as §2, §3
The same tests were repeated using E. coli ATCC 12435 instead of the SAC-2 E. coli, and tryptic soy agar was employed instead of Salmonella Shigella agar.

Row | Compound | Salmonella (M61) Log Kill ([1]; 2.5 wt % aqueous solution, 80 sec., room temperature 71 deg. F) | performance compared to that of lactic acid, Salmonella M61 log kill ([1]; 2.5 wt. % solution, 80 seconds) | Log Kill Salmonella (ATCC 14028) ([2]; 2.0% total acid) | Relative Kill Salmonella (ATCC 14028) ([2]; 2.0% total acid, 40/40 = 1) | Citric Acid Efficacy Log kill (75 F., 20 sec) ([2]; 2.5 % citric acid, Salmonella ATCC 14028, 75 F., 20 sec) | Salmonella (ATCC 14028) Log Kill ([2]; 2.5 wt % aqueous solution, 15 sec.) | Log Kill Salmonella (ATCC 14028) ([2]; […] total acid) | Relative Kill Salmonella (ATCC 14028) ([2]; […] total acid, 80/0 = 1) | Log Kill Escherichia coli (SAC-2) [3] | Log Kill Escherichia coli (ATCC 12435) [4]
1 | O=C(O)CC(O)(CC(=O)O)C(=O)O [citric acid] | 0.29 log kill | poor | 0.444 | 0.663 | 0.555 | 0.56 log kill | 0.322 | 0.422 | – | –
2 | CC(O)C(=O)O (stereo not shown) [lactic acid] | – | – | – | – | – | – | – | – | 0.953 | 1.93
